“Also recorded” adds a separate entry of the source. Where a SMILES comes first, the peptide text is derived from it. Bridges are numbered along the chain shown (N, C = ends). [ ]: non-standard residue; d: D form. hArg = N=C(N)NCCCC[C@H](N)C(=O)O; Mpa = O=C(O)CCS
Columns and labels:
[1] = molecular target: T1, interaction of human fibrinogen and human integrin αIIbβ3 (Homo sapiens, UniProt P05106+P08514); test: Fibrinogen binding inhibition assay (competitive ELISA)
T1 construct: purchased Enzyme Research Laboratories (South Bend, Ind.)
Method: Wells of a Costar 3690 96-well plate were coated with 100 ng of integrin αIIbβ3 in 50 μl metal buffer at 4° C. overnight. The plate was washed twice with water and blocked with 160 μl of 3% (w/v) skim milk in TBS for 1 h at 37° C. […] The final concentrations were adjusted between 1.3×10^−8 M and 8.0×10^−7 M of Fabs and between 8.9×10^−8 M and 9.1×10^−5 M of synthetic peptides. After incubation for 2 h at 37° C. followed by ten times washing with water and five times washing with 0.05% Tween20 in TBS, 50 μl of 0.5 μg/ml streptavidine-HRP (Pierce) diluted in 3% (w/v) skim milk in TBS was added and incubated for 1 h at 37° C. After washing as above, 50 μl of ABTS substrate solution (Barbas, C. F., 3rd, Burton, D. R., Scott, J. K., and Silverman, G. J. (2001) Phage Display: A Laboratory Manual, Cold Spring Harbor Laboratory Press, Cold Spring Harbor, N.Y.) was added. This experiment was repeated three times at each concentration to get the mean value and standard deviation.

integrin αIIbβ3 = integrin αIIbβ3 (Homo sapiens, UniProt P05106+P08514); test: Inhibition of binding of selected RAD antibodies to integrin by peptides
human platelets [2] = test: Platelet aggregation assay ex vivo (ADP-induced, lumi-aggregometer); type: cell-based; conditions: ADP 20 μM; for inhibition of platelet aggregation at 90 μM: peptide 90 μM
Method: Peripheral human blood was collected as described above. Platelet-rich plasma (PRP) was obtained from the collected peripheral blood by centrifugation at 135 g for 15 min. Subsequent centrifugation at 1,500 g for 15 min yielded platelet-poor plasma (PPP). By mixing PRP and PPP, conditioned plasma of 300,000-350,000 platelets per 1 μl of plasma was prepared. […] The platelet aggregation assay was done as described previously (Klinkhardt, U., Kirchmaier, C. M., Westrup, D., Breddin, H. K., Mahnel, R., Graff, J., Hild, M., and Harder, S. (2000) Differential in vitro effects of the platelet glycoprotein IIb/IIIa inhibitors abxicimab or SR121566A on platelet aggregation, fibrinogen binding and platelet secretory parameters. Thromb Res 97, 201-207) using a whole blood lumi-aggregometer (Chrono-log, Havertown, Pa.). The impedance of each sample was monitored until a stable baseline was established (<5 mV drift per minute). To induce platelet aggregation, 9 μl of an ADP solution was added to reach a final concentration of 20 μM. Increase in impedance across a pair of electrodes over time was transmitted through an interface to a personal computer for analysis (AGGRO/LINK, Chrono-log).

[3] = test system: integrins αIIbβ3, αvβ3 and αMβ2; conditions: cited from earlier work
human platelets [4] = test: Flow cytometry, Fab binding to cells; type: cell-based; conditions: Fab 0.2 μM, peripheral blood
Method: (§1) Peripheral blood was drawn from a healthy volunteer and collected in an ACD tube (Becton Dickinson, San Jose, Calif.). HUVEC were treated for 5 min with 0.05% (w/v) trypsin, 0.53 mM EDTA (Life Technologies), collected by centrifugation at 500 g for […], and resuspended in 1% (w/v) BSA in PBS (phosphate buffered saline). […] After incubation for 40 min at room temperature followed by washing twice with 1% (w/v) BSA in PBS, 10 μl of FITC conjugated anti-human IgG polyclonal antibodies (Sigma-Aldrich) diluted in 750 μl of 1% (w/v) BSA in PBS was added and incubated for 20 min at room temperature. After washing twice with 1% (w/v) BSA in PBS, flow cytometry was performed using a FACStar instrument from Becton Dickinson (San Jose, Calif.).

HUVEC cells = test: Flow cytometry, Fab binding to cells; type: cell-based, human; conditions: Fab 0.2 μM; HUVEC mainly express integrin αvβ3
Method: as §1

[5] = human, in vivo; cited from earlier work
platelets = conditions: aggregation induced at 5 μM ADP; read-out: previously reported EC50 of platelet aggregation inhibition; cited from earlier work

| Compound | inhibition of the interaction between integrin αIIbβ3 and fibrinogen (in words) [1] | inhibition of the binding of the selected RAD antibodies to integrin αIIbβ3 (integrin αIIbβ3) | inhibition of platelet aggregation ex vivo (in words) (human platelets [2]) | inhibition of platelet aggregation at 90 μM (human platelets [2]) | reported integrin specificity / cross-reactivity [3] | further results |
| --- | --- | --- | --- | --- | --- | --- |
| CC(C)[C@H](N)C(=O)N[C@@H](Cc1c[nH]c2ccccc12)C(=O)N[C@H]1CSSC[C@@H](C(=O)O)NC(=O)[C@H](CCCNC(=N)N)NC(=O)[C@H](CCCNC(=N)N)NC(=O)[C@H](CC(=O)O)NC(=O)[C@H](C)NC(=O)[C@H](CCCNC(=N)N)NC1=O (H-VWCRADRRC-OH; disulfide 3-9; N-terminus and C-terminus assumed) | inhibited; also recorded: strongly inhibited | inhibited | inhibited; also recorded: strongly inhibited | completely inhibited | – | inhibition of platelet aggregation at 9 μM (human platelets [2]; peptide 9 μM): the only peptide to inhibit platelet aggregation |
| Abciximab: chimeric Fab with mouse variable and human constant domains, integrin αIIbβ3 inhibitor | – | – | – | – | cross-react with integrin αvβ3 and αMβ2 | binding to human platelets (flow cytometry) (human platelets [4]): bound to both platelets and HUVEC cells; binding to HUVEC cells (flow cytometry) (HUVEC cells): bound to both platelets and HUVEC cells; EC50 (human platelets [2]; conditioned plasma, read-out: EC50, required concentration for 50% inhibition in a human platelet aggregation assay): 0.045 µM; occurrence of thrombocytopenia after the second administration [5]: 4%; EC50 (platelets): 0.034 µM |
| VVCDARRRC (inversed RAD motif peptide) [control peptide with an inversed RAD motif, reference compound] | did not inhibit | – | – | – | – | – |
| N=C(N)NCCCC[C@@H]1NC(=O)CCSSC[C@@H](C(N)=O)NC(=O)[C@@H]2CCCN2C(=O)[C@H](Cc2c[nH]c3ccccc23)NC(=O)[C@H](CC(=O)O)NC(=O)CNC1=O [eptifibatide] ([Mpa][hArg]GDWPC-NH2; disulfide 1-7) | – | – | – | – | αIIbβ3-specific | incidence of thrombocytopenia versus placebo [5]: approximately the same |
| THSDARRRE (inversed RAD motif peptide) [control peptide with an inversed RAD motif, reference compound] | did not inhibit | – | – | – | – | – |
| CCCCS(=O)(=O)N[C@@H](Cc1ccc(OCCCCC2CCNCC2)cc1)C(=O)O [tirofiban] | – | – | – | – | αIIbβ3-specific | – |
| CC(C)[C@H](N)C(=O)N[C@@H](Cc1c[nH]c2ccccc12)C(=O)N[C@H]1CSSC[C@@H](C(=O)O)NC(=O)[C@H](CCCNC(=N)N)NC(=O)[C@H](CCCCN)NC(=O)[C@H](CC(=O)O)NC(=O)[C@H](C)NC(=O)[C@H](CCCNC(=N)N)NC1=O (H-VWCRADKRC-OH; disulfide 3-9; N-terminus and C-terminus assumed) | inhibited; also recorded: strongly inhibited | inhibited | inhibited; also recorded: strongly inhibited | completely inhibited | – | – |
| THSRADRRE (listed as Homo sapiens) [linear nonapeptide derived from HCDR3 of clone RAD1] | did not inhibit and not | – | not | – | – | – |
| CC(C)[C@H](N)C(=O)N[C@H](C(=O)N[C@H]1CSSC[C@@H](C(=O)O)NC(=O)[C@H](CCCNC(=N)N)NC(=O)[C@H](CCCNC(=N)N)NC(=O)[C@H](CC(=O)O)NC(=O)[C@H](C)NC(=O)[C@H](CCCNC(=N)N)NC1=O)C(C)C (H-VVCRADRRC-OH; disulfide 3-9; N-terminus and C-terminus assumed) | inhibited; also recorded: strongly inhibited | inhibited | inhibited; also recorded: strongly inhibited | completely inhibited | – | – |
